Reference: patent publication US20150368248A1, “2-SUBSTITUTED-6-BIARYLMETHYLAMINO-9-CYCLOPENTYL-9H-PURINE DERIVATIVES, USE THEREOF AS MEDICAMENTS, AND PHARMACEUTICAL COMPOSITIONS” (UNIVERZITA PALACKEHO V OLOMOUCI, priority 2013, published 2015)
pIC50: −log10 of the molar value.

How the values were obtained:
PLC/PRF/5 = test: MTT cytotoxicity assay (Example 30); type: cell-based; conditions: Homo sapiens, PLC-PRF-5, 72 h; MTT, three days after drug addition; read-out: Inhibitory concentration IC50, PLC/PRF/5
Protocol: (§1) Cytotoxicity of the compounds is the major property determining their anticancer effect in vivo. One of the parameters used, as the basis for cytotoxicity assays, is the metabolic activity of viable cells.
(§2) We have been using the following cell lines: HUH-7 and PLC/PRF/5 cell lines were maintained in DMEM supplemented with 10% fetal bovine serum, penicillin (100 U/ml) and streptomycin (100 μg/ml). […] HepG2 cell line was maintained in EMEM supplemented with 10% fetal bovine serum, sodium pyruvate (0.11 g/1), penicillin (100 U/ml) and streptomycin (100 μg/ml). All cell lines were cultivated at 37° C. in 5% CO2. For cytotoxicity assays, 3000 cells (10000 cells in case of HepG2 cell line) were seeded into each well of 96 well plate and the next day tested compounds were added at various concentrations in triplicates. Three days after drug addition MTT stock solution (5 mg/ml) was added into each well and incubated for 4 h. After this incubation period, produced formazan was dissolved by DMSO and final absorbance was measured at 570 nm with Synergy H4 Hybrid Multi-Mode Microplate Reader.

HCC-1.1 (3sp) = test: MTT cytotoxicity assay (Example 30); type: cell-based; conditions: Homo sapiens, 72 h; MTT, three days after drug addition; read-out: Inhibitory concentration IC50, 3sp
Protocol: as §1, §2

HUH-7 = test: MTT cytotoxicity assay (Example 30); type: cell-based; conditions: Homo sapiens, Huh-7, 72 h; MTT, three days after drug addition; read-out: Inhibitory concentration IC50, HUH-7
Protocol: as §1, §2

HCC-1.2 (3p) = test: MTT cytotoxicity assay (Example 30); type: cell-based; conditions: Homo sapiens, HCC-1.2, 72 h; MTT, three days after drug addition; read-out: Inhibitory concentration IC50, 3p
Protocol: as §1, §2

HepG2 = test: MTT cytotoxicity assay (Example 30); type: cell-based; conditions: Homo sapiens, HepG2, 72 h; MTT, three days after drug addition; read-out: Inhibitory concentration IC50, HepG2
Description: Cytotoxicity of the compounds is the major property determining their anticancer effect in vivo. One of the parameters used, as the basis for cytotoxicity assays, is the metabolic activity of viable cells. For example, a microtiter assay, which uses (3-(4,5-Dimethylthiazol-2-yl)-2,5-diphenyltetrazolium bromide (MTT), is widely used to quantitate cell proliferation and cytotoxicity. For instance, this assay is used in drug screening programs and in chemosensitivity testing. Because only metabolically active living cells reduce MTT to correspond purple formazan dye, these assays detect viable cells exclusively. The quantity of reduced MTT corresponds to the number of vital cells in the culture.
We have been using the following cell lines: HUH-7 and PLC/PRF/5 cell lines were maintained in DMEM supplemented with 10% fetal bovine serum, penicillin (100 U/ml) and streptomycin (100 μg/ml). Unique HCC-1.2 (3p) and HCC-1.1 (3sp) cell lines (Zilj et al., 2009, Future Oncol, 5(8):1169-79) and Hep3B cells were cultivated in RPMI supplemented with 10% fetal bovine serum, penicillin (100 U/ml) and streptomycin (100 μg/ml). HepG2 cell line was maintained in EMEM supplemented with 10% fetal bovine serum, sodium pyruvate (0.11 g/1), penicillin (100 U/ml) and streptomycin (100 μg/ml). All cell lines were cultivated at 37° C. in 5% CO2. For cytotoxicity assays, 3000 cells (10000 cells in case of HepG2 cell line) were seeded into each well of 96 well plate and the next day tested compounds were added at various concentrations in triplicates. Three days after drug addition MTT stock solution (5 mg/ml) was added into each well and incubated for 4 h. After this incubation period, produced formazan was dissolved by DMSO and final absorbance was measured at 570 nm with Synergy H4 Hybrid Multi-Mode Microplate Reader.

[1] = tested on: caspase-3/7 activity in PLC/PRF/5 cell line; test: One-step cellular caspase-3/7 activity assay; type: cell-based, human; conditions: 24 hours incubation, relative to 0 nM = 1.00
Protocol: (§3) Measurements of proapoptotic properties of new compounds were based on quantification of enzymatic activities of caspases, concretely caspases-3/7. Activity of cellular caspase-3/7 was measured according to Carrasco et al., 2003, BioTechniques, 34(5): 1064-67. Briefly, Hep3B and PLC/PRF/5 cells were incubated in the densities of 10000 cells/well in a 96-well plate overnight. Next day, the compounds in appropriate concentrations were added and cells were incubated for the 24 hours. After incubation, 3× caspase-3/7 assay buffer (150 mM HEPES pH 7.4, 450 mM NaCl, 150 mM KCl, 30 mM MgCl2, 1.2 mM EGTA, 1.5% Nonidet P40, 0.3% CHAPS, 30% sucrose, 30 mM DTT, 3 mM PMSF) with 150 μM Ac-DEVD-AMC as a substrate (Sigma-Aldrich) was added to the wells and plates were incubated at […]. The caspase-3/7 activity was measured after 6 hours using Fluoroskan Ascent microplate reader (Labsystems) at 346 nm/442 nm (excitation/emission).

[2] = tested on: caspase-3/7 activity in Hep3B cell line; test: One-step cellular caspase-3/7 activity assay; type: cell-based, human; conditions: 24 hours, 0 nM = 1.00
Protocol: as §3

[3] = tested on: p53-regulated transcription in Arn8 cells; test: p53-dependent transcriptional activity, β-galactosidase reporter; type: cell-based; conditions: 24 h incubation
Protocol: Stronger anticancer activity of the compounds is enhanced by its positive impact on stability and activity of the tumour suppressor p53. To measure p53-dependent transcriptional activity, β-galactosidase activity was quantified in the melanoma cell line Arn8, which had been established using stable transfection of cells with a p53-responsive reporter construct pRGCAfoslacZ (Frebung et al., Cancer Res., 52, 1992-6976). Briefly, after 24 h incubation with the inhibitors the Arn8 cells were permeabilized with 0.3% Triton X-100 for 15 min and then 4-methylumbelliferon-β-D-galactopyranoside was added as a substrate to the final concentration of 80 μM. After 1 h the fluorescence of product 4-methylumbelliferon was measured at 355/460 nm (ex/em) with a Fluoroskan Ascent microplate reader (Labsystems). Data in Tab. 8 present that series of 2-substituted-6-biarylmethylamino-9-cyclopentyl-9H-purine derivatives show a dose-dependent activatory effect on p53-regulated transcription, with the maximum impact observed between 100 and 500 nM concentrations for most of prepared compounds (Tab. 8).

Structure (SMILES)	pIC50 (PLC/PRF/5)	pIC50 (HCC-1.1 (3sp))	pIC50 (HUH-7)	pIC50 (HCC-1.2 (3p))	pIC50 (HepG2)	Relative caspase-3/7 activity in PLC/PRF/5 cell line ([1]; compound concentration 40 nM)	Relative caspase-3/7 activity in PLC/PRF/5 cell line ([1]; compound concentration 80 nM)	Relative caspase-3/7 activity in PLC/PRF/5 cell line ([1]; compound concentration 160 nM)	Relative caspase-3/7 activity in PLC/PRF/5 cell line ([1]; compound concentration 320 nM)	Relative caspase-3/7 activity in PLC/PRF/5 cell line ([1]; compound concentration 640 nM)	Relative caspase-3/7 activity in PLC/PRF/5 cell line ([1]; compound concentration 1280 nM)	Relative caspase-3/7 activity in Hep3B cell line ([2]; 100 nM)	Relative caspase-3/7 activity in Hep3B cell line ([2]; 200 nM)	Relative caspase-3/7 activity in Hep3B cell line ([2]; 400 nM)	Relative caspase-3/7 activity in Hep3B cell line ([2]; 800 nM)	Relative caspase-3/7 activity in Hep3B cell line ([2]; 1600 nM)	Concentration of maximum activation [3] [nM]
NC1CCC(Nc2nc(NCc3ccc(-c4cccc(F)c4)nc3)c3ncn(C4CCCC4)c3n2)CC1 (stereo not shown) [BP19, N^2-(4-amino-cyclohexyl)-9-cyclopentyl-N^6-[6-(3-fluoro-phenyl)-pyridin-3-ylmethyl]-9H-purine-2,6-diamine]	8.05	6.39	6.55	6.72	6.95	1.78	2.39	>5.00	>5.00	>5.00	>5.00	0.90	4.82	6.60	9.80	9.45	167
OC1CCC(Nc2nc(NCc3ccc(-c4ccco4)nc3)c3ncn(C4CCCC4)c3n2)CC1 (stereo not shown) [BP21, 4-{9-cyclopentyl-6-[(6-furan-2-yl-pyridin-3-ylmethyl)-amino]-9H-purine-2-ylamino}-cyklohexanol]	7.34	6.39	6.81	6.78	7.42	0.69	1.20	2.19	3.39	>5.00	>5.00	–	1.15	1.18	4.36	7.19	918
Nc1ccccc1-c1ccc(CNc2nc(NC3CCC(N)CC3)nc3c2ncn3C2CCCC2)cc1 (stereo not shown) [BP32, N^2-(4-amino-cyclohexyl)-9-cyclopentyl-N^6-(2′-amino-biphenyl-4-ylmethyl)-9H-purine-2,6-diamine]	6.91	6.16	6.19	6.27	< 6.00	0.62	1.00	0.69	2.01	>5.00	>5.00	–	0.70	1.15	2.48	7.53	895
